Reference: patent US8846694B2, “Pyrrolidone derivatives for use as MetAP-2 inhibitors” (Merck Patent GmbH, priority 2008, dated 2014)
Converted amounts (≈) assume the structure as drawn.

Columns and labels:
[1] = Shake flask solubility measurement; type: physicochemical; conditions: shake flask, buffer, shaken at 37° C. for 24 h
Protocol: Determination by Shake Flask Solubility Measurement
• Eluent A: 2 ml of diethylamine, for synthesis+1000 ml of methanol, LiChrosolv • Eluent B: 5 g of ammonium acetate, for analysis+5 ml of methanol, LiChrosolv+995 ml of ultrapure water Sample Solvent:
Buffer: 3.954 g of sodium dihydrogenphosphate monohydrate+6.024 g of sodium chloride+950 ml of ultrapure water the pH is adjusted using 0.1 M NaOH or 0.1 M HCl.
The samples are shaken at 37° C. and 450 rpm for 24 h.
After about 7 h, the pH of the samples is checked and adjusted if necessary. It is also checked whether the sample is still present in excess.
Just before the end of the 24 h shaking time, the samples are again checked for pH and a precipitate.

[2] = target: MetAP-2 (Homo sapiens, UniProt P50579); test: MetAP-2 activity measurement (coupled enzymatic reactions, substrate Met-Arg-Ser, photometric at 450 nm); type: biochemical; conditions: read-out: IC50 enzyme (Inhibition of MetAP-2)
Sequence of MetAP-2 (P50579 whole entry, species assumed): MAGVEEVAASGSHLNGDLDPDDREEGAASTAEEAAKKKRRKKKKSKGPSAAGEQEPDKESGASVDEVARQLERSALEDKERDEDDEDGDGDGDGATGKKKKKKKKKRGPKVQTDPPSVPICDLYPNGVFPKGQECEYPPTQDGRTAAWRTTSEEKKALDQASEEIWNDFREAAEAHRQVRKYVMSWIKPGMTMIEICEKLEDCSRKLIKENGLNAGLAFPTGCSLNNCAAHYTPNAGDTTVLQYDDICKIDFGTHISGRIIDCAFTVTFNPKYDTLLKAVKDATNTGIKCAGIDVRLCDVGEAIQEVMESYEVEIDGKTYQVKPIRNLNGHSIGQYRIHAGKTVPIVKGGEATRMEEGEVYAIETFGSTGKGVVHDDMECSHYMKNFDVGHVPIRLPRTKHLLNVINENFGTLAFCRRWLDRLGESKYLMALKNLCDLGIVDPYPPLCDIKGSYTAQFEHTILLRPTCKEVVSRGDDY
Procedure, shortened: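 Human MetAP-2 cleaves Met-Arg-Ser; the freed methionine is oxidized by L-amino acid oxidase, and the resulting H2O2 drives peroxidase oxidation of dianisidine, read continuously at 450 nm. Activity is taken as the slope in the visually linear region.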

Compound	IC50 [2] [nM]	further results
O=C(O)/C=C1/CCc2c(OC[C@H]3CCCN3c3ncnc4[nH]cnc34)cccc2C1=O [[1-oxo-5-[(R)-1-(9H-purin-6-yl)pyrrolidin-2-ylmethoxy]-3,4-dihydro-1H-naphthalen-(2Z)-ylidene]acetic acid]		solubility at 24 h ([1]; sodium phosphate/sodium chloride buffer, aqueous buffer, thermodynamic from solid): > 3800 µg/mL
CC(O)CNC(=O)c1cc(OC[C@H]2CCCN2c2ncnc3[nH]cnc23)c2ccccc2n1 (stereo partly drawn)		solubility [1]: 325 µg/mL (≈ 0.726 mM)
Brc1nc2c(N3CCC[C@@H]3COc3cccc4ccccc34)ncnc2[nH]1 [A18, 8-Bromo-6-[(R)-2-(naphthalen-1-yloxymethyl)-pyrrolidin-1-yl]-9H-purine]	> 10000	
F[C@@H]1C[C@H](COc2cccc3ccccc23)N(c2ncnc3[nH]cnc23)C1 [A26, 6-[(2R,4R)-4-Fluoro-2-(naphthalen-1-yl-oxymethyl)pyrrolidin-1-yl]-9H-purine]	> 10000	
CCOC(=O)c1c(OC[C@H]2CCCN2c2ncnc3[nH]cnc23)c2cc(F)ccc2n1C [A184, Ethyl 5-fIuoro-1-methyl-3-[(R)-1-(9H-purin-6-yl)-pyrrolidin-2-ylmethoxy]-1H-indole-2-carboxylate]	> 10000	
CNc1ccccc1C(=O)OC[C@H]1CCCN1c1ncnc2[nH]cnc12 [A143, (R)-1-(9H-purin-6-yl)pyrrolidin-2-ylmethyl 2-methylaminobenzoate]	10 to 1000	
Oc1ccc2cccc(OC[C@H]3CCCN3c3ncnc4[nH]cnc34)c2c1 [A124, 8-[(R)-1-(9H-Purin-6-yl)pyrrolidin-2-yl-methoxy]naphthalen-2-ol]	1000 to 10000	
CCCCOC1=Cc2c(cccc2OC[C@H]2CCCN2c2ncnc3[nH]cnc23)CC1 [A119, 6-[(R)-2-(7-Butoxy-5,6-dihydronaphthalen-1-yl-oxymethyl)pyrrolidin-1-yl]-9H-purine]	1000 to 10000	
CNC(=O)c1cc(Oc2ccc(CNC(=O)Nc3cc(C(F)(F)F)ccc3OCC3CCCN3c3ncnc4[nH]cnc34)cc2)ccn1 (stereo not drawn) [A34, N-Methyl-4-[4-(3-{2-[1-(9H-purin-6-yl)pyrrolidin-2-ylmethoxy]-5-trifluoromethyl-phenyl}ureidomethyl)phenoxy]pyridine-2-carboxamide]	> 10000	
FC(F)(F)c1cc(OC[C@H]2CCCN2c2ncnc3[nH]cnc23)c2cc(Cl)ccc2n1 [A105, 6-Chloro-4-[(R)-1-(9H-purin-6-yl)pyrrolidin-2-yl-methoxy]-2-trifluoromethylquinoline]	10 to 1000	
Clc1ncc(OC[C@H]2CCCN2c2ncnc3[nH]cnc23)c2ccccc12 [A57, 1 -Chloro-4-[(R)-1-(9H-purin-6-yl)pyrrolidin-2-yl-methoxy]isoquinoline]	10 to 1000	
c1cc(OC[C@H]2CCCN2c2ncnc3[nH]cnc23)c2nccn2c1 [A104, 6-[(R)-2-(Imidazo[1,2-a]pyridin-8-yloxymethyl)-pyrrolidin-1-yl]-9H-purine]	1000 to 10000	
NC(=O)C[C@H](N)C(=O)N1CCc2cccc(OC[C@H]3CCCN3c3ncnc4[nH]cnc34)c2C1 [A201, (S)-3-Amino-4-oxo-4-{8-[(R)-1-(9H-purin-6-yl)-pyrrolidin-2-ylmethoxy]-3,4-dihydro-1H-isoquinolin-2-yl}butyramide]	1000 to 10000	
O=C(OCc1ccccc1)N1CCc2cccc(OC[C@H]3CCCN3c3ncnc4[nH]cnc34)c2C1 [A120, Benzyl 8-[(R)-1-(9H-purin-6-yl)pyrrolidin-2-yl-methoxy]-3,4-dihydro-1H-isoquinoline-2-carboxylate]	1000 to 10000	
O=CN1CCN(c2ccc3cccc(OC[C@H]4CCCN4c4ncnc5[nH]cnc45)c3c2)CC1 [A166, 4-{8-[(R)-1-(9H-Purin-6-yl)pyrrolidin-2-ylm-ethoxy]naphthalen-2-yl}piperazine-1-carbaldehyde]	10 to 1000	
CNC(=O)CC1CCc2c(OC[C@H]3CCCN3c3ncnc4[nH]cnc34)cccc2C1=O (stereo partly drawn) [A179, N-Methyl-2-{1-oxo-5-[(R)-1-(9H-purin-6-yl)-pyrrolidin-2-ylmethoxy]-1,2,3,4-tetrahydro-naphthalen-2-yl}acetamide]	10 to 1000	
CCCCn1c(C)c(C(=O)OCC)c2cc(OC[C@H]3CCCN3c3ncnc4[nH]cnc34)ccc21 [A39, Ethyl 1-butyl-2-methyl-5-[(R)-1-(9H-purin-6-yl)-pyrrolidin-2-ylmethoxy]-1H-indole-3-carboxylate]	1000 to 10000	
CC(C)(C)OC(=O)N[C@@H](CCC(N)=O)C(=O)N1CCc2cccc(OC[C@H]3CCCN3c3ncnc4[nH]cnc34)c2C1 [A187, tert-Butyl ((S)-3-carbamoyl-1-{8-[(R)-1-(9H-purin-6-yl)pyrrolidin-2-ylmethoxy]-3,4-dihydro-1H-isoquinoline-2-carbonyl}propyl)carbamate]	1000 to 10000	
NC(=O)CCn1cnc2c(N3CCC[C@@H]3COc3cccc4ccc(O)cc34)ncnc21 [A135, 3-{6-[(R)-2-(7-Hydroxynaphthalen-1-yl-oxymethyl)pyrrolidin-1-yl]purin-9-yl}-propionamide]	> 10000	
c1ccc2c(OC[C@H]3CCCN3c3ncnc4[nH]cnc34)ccc(CNCCCN3CCOCC3)c2c1 [A95, (3-Morpholin-4-ylpropyl)-{4-[(R)-1-(9H-purin-6-yl)pyrrolidin-2-ylmethoxy]naphthalen-1-yl-methyl}amine]	10 to 1000	
CC(=O)NC1CCN(C2CCc3cccc(OC[C@H]4CCCN4c4ncnc5[nH]cnc45)c3C2)C1 (stereo partly drawn) [A171, N-(1-{8-[(R)-1-(9H-Purin-6-yl)pyrrolidin-2-yl-methoxy]-1,2,3,4-tetrahydronaphthalen-2-yl}pyrrolidin-3-yl)acetamide]	1000 to 10000	
CCNC(=O)N1CCN(c2ccc3cccc(OC[C@H]4CCCN4c4ncnc5[nH]cnc45)c3c2)CC1 [A155, N-Ethyl-4-{8-[(R)-1-(9H-purin-6-yl)pyrrolidin-2-yl-methoxy]naphthalen-2-yl}piperazine-1-carboxamide]	1000 to 10000	

The next lines start with results.

IC50 [2] [nM]	Compound	further results
1000 to 10000	c1ccc2c(c1)oc1cc(OC[C@H]3CCCN3c3ncnc4[nH]cnc34)ccc12 [A37]	
1000 to 10000	O=C(NC1CCCC1)c1cc(OC[C@H]2CCCN2c2ncnc3[nH]cnc23)c2ccccc2n1 [A69, N-Cyclopentyl-4-[(R)-1-(9H-purin-6-yl)-pyrrolidin-2-ylmethoxy]quinoline-2-carboxamide]	
> 10000	CC(C)(C)OC(=O)NCCCC[C@H](NC(=O)OCc1ccccc1)C(=O)N1CCc2cccc(OC[C@H]3CCCN3c3ncnc4[nH]cnc34)c2C1 [A193, tert-Butyl ((S)-5-benzyloxycarbonylamino-6-oxo-6-{8-[(R)-1-(9H-purin-6-yl)pyrrolidin-2-yl-methoxy]-3,4-dihydro-1H-isoquinolin-2-yl}hexyl)-carbamate]	
10 to 1000	Cn1ncc(Cl)c1/C=C1/CCc2c(OC[C@H]3CCCN3c3ncnc4[nH]cnc34)cccc2C1=O [A82, 2-[1-(4-Chloro-2-methyl-2H-pyrazol-3-yl)meth-(Z)-ylidene]-5-[(R)-1-(9H-purin-6-yl)pyrrolidin-2-ylmethoxy]-3,4-dihydro-2H-naphthalen-1-one]	
10 to 1000	2-[1-(1H-imidazol-4-yl)meth-(Z)-ylidene]-5-[(R)-1-(9H-purin-6-yl)pyrrolidin-2-ylmethoxy]-3,4-dihydro-2H-naphthalen-1-one [A15]	
1000 to 10000	CN1CCN(c2ccc3cccc(OC[C@H]4CCCN4c4ncnc5[nH]cnc45)c3c2)CC1 [A145, 6-{(R)-2-[7-(4-Methylpiperazin-1-yl)naphthalen-1-yloxymethyl]pyrrolidin-1-yl}-9H-purine]	
1000 to 10000	CNC(=O)/C=C/c1ccccc1OC[C@H]1CCCN1c1ncnc2[nH]cnc12 [A78, (E)-N-Methyl-3-{2-[(R)-1-(9H-purin-6-yl)-pyrrolidin-2-ylmethoxy]phenyl}acrylamide]	
10 to 1000	CCCCNC(=O)c1cc(OC[C@H]2CCCN2c2ncnc3[nH]cnc23)c2ccccc2n1 [A70, N-Butyl-4-[(R)-1-(9H-purin-6-yl)pyrrolidin-2-yl-methoxy]quinoline-2-carboxamide]	
10 to 1000	O=C(/C=C/c1ccccc1OC[C@H]1CCCN1c1ncnc2[nH]cnc12)NCCCO [A79, (E)-N-(3-Hydroxypropyl)-3-{2-[(R)-1-(9H-purin-6-yl)pyrrolidin-2-ylmethoxy]phenyl}acrylamide]	
1000 to 10000	O=C1OCCC1CCn1cnc2c(N3CCC[C@@H]3COc3cccc4ccc(O)cc34)ncnc21 (stereo partly drawn) [A134, 3-(2-{6-[(R)-2-(7-Hydroxynaphthalen-1-yl-oxymethyl)pyrrolidin-1-yl]purin-9-yl}ethyl)-dihydrofuran-2-one]	
> 10000	O=c1ccc(-c2cc(F)cc(F)c2)nn1CC1CCCN1c1ncnc2[nH]cnc12 (stereo not drawn) [A32, 6-(3,5-Difluorophenyl)-2-[1-(9H-purin-6-yl)-pyrrolidin-2-ylmethyl]-2H-pyridazin-3-one]	
> 10000	Oc1ccc2cccc(NC[C@H]3CCCN3c3ncnc4[nH]cnc34)c2c1 [A131, 8-{[(R)-1-(9H-Purin-6-yl)pyrrolidin-2-ylmethyl]-amino}naphthalen-2-ol]	
1000 to 10000	CC(C)(C)OC(=O)N[C@@H](CCC(N)=O)C(=O)Nc1ccc2cccc(OC[C@H]3CCCN3c3ncnc4[nH]cnc34)c2c1 [A161, tert-Butyl ((S)-3-carbamoyl-1-{8-[(R)-1-(9H-purin-6-yl)pyrrolidin-2-ylmethoxy]naphthalen-2-ylcarbamoyl}propyl)carbamate]	
1000 to 10000	CC(C)(C)OC(=O)NCCCCCC(=O)N1CCc2cccc(OC[C@H]3CCCN3c3ncnc4[nH]cnc34)c2C1 [A133, tert-Butyl (6-oxo-6-{8-[(R)-1-(9H-purin-6-yl)-pyrrolidin-2-ylmethoxy]-3,4-dihydro-1H-isoquinolin-2-yl}hexyl)carbamate]	
